Data: US20080182234A1, “Methods and Compositions for Modulating Adenosine Triphosphate (ATP) in Cells and Preventing Cell Injury or Death via Post-translational Modifications to ATP Synthase” (priority 2001, published 2008)
Entries after “also recorded” stand apart in the source; their conditions may differ.

Legend:
[1] = system: ATP synthase β chain precursor; test: Two-dimensional gel electrophoresis (silver stain, western blot) of cytoplasmic extract of adenosine-treated isolated myocytes; type: cell-based, rabbit
Experimental: Ventricular myocytes from New Zealand White rabbits (weighing 1 to 2 kg) were isolated by collagenase dissociation, as described previously by Liu et al. (Circ. Res. 1996 78:443-454). Hearts were excised, then perfused with collagenase (1.0 mg/mL, Worthington type II) for 14 minutes at a maintained perfusion pressure of 75 mm Hg on a Langendorff apparatus, yielding >50% Ca^2+-tolerant ventricular myocytes. Cell isolation was followed directly by pharmacological preconditioning, which was carried out by treatment with 100 μmol/L adenosine (Sigma) for 60 minutes in a 37° C. water bath, as described previously by Liu et al. supra. Untreated cells were prepared concurrently as drug-free controls. Equivalent 25 μL aliquots of cells (containing ˜30 mg/mL of protein as determined by Lowry assay (Lowry, O. H. J. Biol. Chem. 1951 193:265-275) were frozen and stored at −80° C. until analysis. All steps in the “1N Sequence” protein extraction protocol to produce cytoplasmic and myofilament enriched extracts were carried out at 4° C., and all centrifugations were conducted at 16000×g for 2 minutes at 4° C. Myocyte proteins were first extracted by two rounds of homogenization in 100 μL of HEPES extraction buffer, consisting of (in mmol/L) HEPES 25 (pH 7.4), NaF 50, Na3VO4 0.25, phenylmethylsulfonyl fluoride 0.25, EDTA 0.5, and (in μmol/L) leupeptin 1.25, pepstatin A 1.25. […]

[2] = system: isolated myocytes obtained from rabbit hearts; details: 100 μM adenosine for 60 minutes; cited from earlier work

Nc1ncnc2c1ncn2[C@@H]1O[C@H](CO)[C@@H](O)[C@H]1O [adenosine]
additional, more acidic spots at the molecular weight of intact ATP synthase β chain precursor on 2-D gel (silver stain or western blot) ([1]; isolated rabbit cardiomyocytes, 100 μM adenosine for 60 minutes, cytoplasmic extract, n=4, control had only a single protein spot): Two additional spots | post-translational modifications of ATP synthase β-chain precursor ([1]; isolated rabbit myocytes treated with adenosine for 60 minutes (n=4) versus untreated myocytes): An increase in the post-translational modifications; also recorded: Post-translational modifications to the ATP synthase β-chain precursor were detected | protection against cell death [2]: sufficient to protect against cell death
